Laboratory results published in DBAASP.
In brackets after ≈: the same amount, converted by molar mass. Several values for one entry are separate records, joined by “and”; a condition that tells them apart may be missing. Identical values can stand only once.

How the values were obtained:
Experiment in all cases: ≥ marks a high value that may be exact or a test limit, other limits are often not marked, values filed in µg/mL are converted to µM
[1] = test system: Escherichia coli NBRC 14237
[2] = test system: Pseudomonas aeruginosa NBRC 12582
[3] = test system: Saccharomyces cerevisiae NBRC 10217
[4] = test system: Staphylococcus aureus NBRC 12732
[5] = test system: Bacillus subtilis ATCC 6633
[6] = test system: Candida albicans ATCC 10231
[7] = test system: Candida parapsilosis ATCC 22019
Cryptococcus neoformans = test system: Cryptococcus neoformans
[8] = test system: Escherichia coli ATCC 25922
[9] = test system: Escherichia coli ATCC 9637
[10] = test system: Klebsiella pneumoniae ATCC 27736
[11] = test system: Pseudomonas aeruginosa ATCC BAA-427
[12] = test system: Staphylococcus aureus ATCC 25923
[13] = test system: Staphylococcus aureus ATCC 29213
[14] = test system: Staphylococcus aureus ATCC 33592
[15] = test system: Staphylococcus aureus ATCC 700698
[16] = test system: Staphylococcus aureus ATCC 700699
[17] = test system: Staphylococcus aureus ATCC BAA-44
[18] = test system: Candida albicans ATCC 90028
[19] = test system: Enterococcus faecium ATCC 29212
[20] = test system: Escherichia coli O157:H7 ATCC 43895
[21] = test system: Malassezia furfur KCTC 7744
[22] = test system: Pseudomonas aeruginosa ATCC 27853
[23] = test system: Streptococcus mutans KCTC 3065
[24] = test system: Trichosporon beigelii KCTC 7707
[25] = test system: Vibrio vulnificus ATCC 29307
[26] = test system: Mannheimia haemolytica 82-25
[27] = test system: Pseudomonas aeruginosa 253
[28] = test system: Pseudomonas aeruginosa 910
[29] = test system: Pseudomonas aeruginosa 919
[30] = test system: Pseudomonas aeruginosa PAO1
Escherichia coli TOP 10 = test system: Escherichia coli TOP 10
[31] = test system: Escherichia coli ATCC 9723H
Escherichia coli NDM = test system: Escherichia coli NDM
[32] = test system: Staphylococcus aureus ATCC 6538P
Bacillus subtilis 168 HT = test system: Bacillus subtilis 168 HT
[33] = test system: Escherichia coli K12 MG1655
[34] = test system: Staphylococcus aureus ST88
[35] = test system: Staphylococcus haemolyticus 527

Structure (SMILES): CSCC[C@H](NC(=O)CNC(=O)[C@@H](NC(=O)[C@H](CCCCN)NC(=O)[C@H](C)NC(=O)CNC(=O)[C@@H](NC(=O)[C@H](CCCCN)NC(=O)[C@H](C)NC(=O)[C@H](C)NC(=O)[C@H](CCCCN)NC(=O)[C@H](CCCCN)NC(=O)[C@H](CC(C)C)NC(=O)[C@H](Cc1ccccc1)NC(=O)[C@H](CC(N)=O)NC(=O)[C@H](CC(C)C)NC(=O)[C@H](Cc1ccccc1)NC(=O)[C@H](CCCCN)NC(=O)CNC(=O)CNC(=O)[C@@H](N)CCCCN)C(C)C)C(C)C)C(=O)N[C@@H](C)C(=O)N[C@@H](C)C(=O)N[C@@H](CC(C)C)C(=O)NCC(=O)O [KGGKFLNFLKKAAKVGAKVGMAALG]
- MIC [1]: 3.12 µM (≈ 7.83 µg/mL)
- MIC [2]: 6.25 µM (≈ 15.7 µg/mL)
- MIC [3]: 6.25 µM (≈ 15.7 µg/mL)
- MIC [4]: 3.12 µM (≈ 7.83 µg/mL)

Structure (SMILES): CC[C@H](C)[C@H](NC(=O)[C@H](CCCN=C(N)N)NC(=O)CNC(=O)[C@H](CC(C)C)NC(=O)[C@H](CCCCN)NC(=O)[C@H](CCCCN)NC(=O)[C@H](Cc1c[nH]c2ccccc12)NC(=O)[C@H](Cc1ccccc1)NC(=O)[C@H](CO)NC(=O)[C@H](CCCCN)NC(=O)[C@@H](NC(=O)[C@@H](N)Cc1ccccc1)C(C)C)C(=O)N[C@@H](CC(C)C)C(N)=O [FVKSFWKKLGRIL]
- MIC [5]: 3.8 µM (≈ 6.16 µg/mL)
- MIC [6]: 6 µM (≈ 9.73 µg/mL)
- MIC [7]: 6 µM (≈ 9.73 µg/mL)
- MIC (Cryptococcus neoformans): 6 µM (≈ 9.73 µg/mL)
- MIC [8]: 1.9 µM (≈ 3.08 µg/mL)
- MIC [9]: 6.25 µM (≈ 10.1 µg/mL)
- MIC [10]: 3.8 µM (≈ 6.16 µg/mL)
- MIC [11]: 6.8 µM (≈ 11 µg/mL)
- MIC [12]: 3.8 µM and 7.6 µM
- MIC [13]: 12 µM (≈ 19.5 µg/mL)
- MIC [14]: 12 µM (≈ 19.5 µg/mL)
- MIC [15]: 12 µM (≈ 19.5 µg/mL)
- MIC [16]: 12 µM (≈ 19.5 µg/mL)
- MIC [17]: 12 µM (≈ 19.5 µg/mL)

Structure (SMILES): CC(C)C[C@H](N)C(=O)N[C@@H](CCCN=C(N)N)C(=O)N[C@@H](CCC(N)=O)C(=O)N[C@@H](CO)C(=O)N[C@@H](CCC(N)=O)C(=O)N[C@@H](Cc1ccccc1)C(=O)N[C@H](C(=O)NCC(=O)N[C@@H](CO)C(=O)N[C@@H](CCCN=C(N)N)C(N)=O)C(C)C [LRQSQFVGSR]
- MIC [18]: ≥ 42.5 µM
- MIC [19]: 21.3 µM (≈ 25.1 µg/mL)
- MIC [20]: 10.6 µM (≈ 12.5 µg/mL)
- MIC [21]: ≥ 42.5 µM
- MIC [22]: 21.3 µM (≈ 25.1 µg/mL)
- MIC [12]: 42.5 µM (≈ 50 µg/mL)
- MIC [23]: 21.3 µM (≈ 25.1 µg/mL)
- MIC [24]: 21.3 µM (≈ 25.1 µg/mL)
- MIC [25]: ≥ 42.5 µM

Structure (SMILES): NCCCC[C@H](NC(=O)[C@H](CC(=O)O)NC(=O)[C@H](CC(=O)O)NC(=O)[C@H](CC(=O)O)NC(=O)CN)C(=O)O [GDDDK]
- MIC [26]: ≥ 200 µM

Structure (SMILES): CC[C@H](C)[C@H](NC(=O)[C@@H](N)Cc1ccccc1)C(=O)N[C@@H](CCCCN)C(=O)N[C@@H](Cc1c[nH]c2ccccc12)C(=O)N[C@@H](CCCCN)C(=O)N[C@@H](CCCCN)C(=O)N[C@@H](CCCN=C(N)N)C(=O)N[C@@H](Cc1c[nH]c2ccccc12)C(=O)N[C@@H](Cc1c[nH]c2ccccc12)C(=O)N[C@@H](CCCCN)C(=O)N[C@@H](CCCCN)C(=O)N[C@@H](CCCN=C(N)N)C(=O)N[C@H](C(N)=O)[C@@H](C)O [FIKWKKRWWKKRT]
- MIC [27]: 16 µM (≈ 30.2 µg/mL)
- MIC [28]: 8 µM (≈ 15.1 µg/mL)
- MIC [29]: ≥ 32 µM
- MIC [30]: 4 µM (≈ 7.56 µg/mL)

Structure (SMILES): CC[C@H](C)[C@H](NC(=O)[C@@H](N)CCC(=O)O)C(=O)N[C@@H](CCC(=O)O)C(=O)N[C@@H](Cc1ccc(O)cc1)C(=O)NCC(=O)N[C@@H](CC(N)=O)C(=O)N1CCC[C@H]1C(=O)NCC(=O)N[C@H](C(=O)NCC(=O)N[C@H](C(=O)N[C@@H](CC(=O)O)C(=O)N[C@@H](CCCN=C(N)N)C(N)=O)[C@@H](C)O)C(C)C [EIEYGNPGVGTDR]
- MIC (Escherichia coli TOP 10): ≥ 71.1 µM

Structure (SMILES): CC[C@H](C)[C@H](NC(=O)[C@@H](NC(=O)[C@@H]1CCCN1C(=O)[C@H](CC(C)C)NC(=O)[C@H](Cc1ccccc1)NC(=O)[C@H](CCCCN)NC(=O)[C@H](CC(N)=O)NC(=O)[C@H](C)NC(=O)[C@H](CC(C)C)NC(=O)[C@@H]1CCCN1C(=O)[C@H](CC(C)C)NC(=O)[C@@H](NC(=O)[C@H](CCCN=C(N)N)NC(=O)[C@@H]1CCCN1C(=O)[C@H](Cc1ccccc1)NC(=O)[C@@H](N)Cc1ccccc1)C(C)C)[C@@H](C)O)C(=O)N[C@@H](Cc1ccc(O)cc1)C(=O)N[C@@H](CS)C(=O)N[C@@H](C)C(=O)N[C@@H](CC(C)C)C(=O)N1CCC[C@H]1C(=O)N[C@@H](CCCCN)C(=O)N[C@@H](CO)C(=O)N[C@H](C(=O)NCC(=O)N[C@@H](CC(N)=O)C(=O)O)C(C)C [FFPRVLPLANKFLPTIYCALPKSVGN]
- MIC [8]: 6 µM (≈ 17.4 µg/mL)
- MIC [31]: 15.6 µM (≈ 45.2 µg/mL)
- MIC (Escherichia coli NDM): 6 µM (≈ 17.4 µg/mL)
- MIC [32]: ≥ 88 µM

Structure (SMILES): CC[C@H](C)[C@H](N)C(=O)N[C@H](C(=O)N[C@@H](CCCCN)C(=O)N[C@@H](CCCN=C(N)N)C(=O)N[C@@H](Cc1ccccc1)C(=O)N[C@@H](Cc1ccccc1)C(=O)N[C@@H](CCCN=C(N)N)C(=O)N[C@H](C(=O)N[C@@H](CO)C(=O)N[C@@H](Cc1ccc(O)cc1)C(=O)N[C@@H](CCCCN)C(=O)N[C@@H](CC(C)C)C(=O)N[C@@H](CCC(N)=O)C(=O)N[C@@H](CO)C(=O)N[C@@H](CC(C)C)C(=O)N[C@@H](CCCCN)C(=O)N[C@H](C(=O)N[C@H](C(=O)N[C@@H](CCCCN)C(=O)NCC(=O)N[C@@H](CCCCN)C(=O)N[C@@H](CCCN=C(N)N)C(=O)N[C@H](C(=O)N[C@@H](Cc1ccccc1)C(=O)N[C@H](C(=O)O)[C@@H](C)O)[C@@H](C)O)[C@@H](C)CC)[C@@H](C)CC)[C@@H](C)CC)C(C)C [IVKRFFRISYKLQSLKIIKGKRTFT]
- MIC (Bacillus subtilis 168 HT): 5.3 µM (≈ 16.3 µg/mL)
- MIC [33]: 10.5 µM (≈ 32.3 µg/mL)
- MIC [34]: ≥ 100 µM
- MIC [35]: 5.3 µM (≈ 16.3 µg/mL)
